According to US20040029968A1, “Nateglinide-containing hydrophilic pharmaceutical preparation” (AJINOMOTO CO. INC, priority 2000, published 2004):

Test: Contact angle of the preparation surface to water
Type: physicochemical
Conditions: flat, smooth tablets prepared from the crystals; water dropped onto the surface
Experimental: The term “contact angle to water” as employed herein means an angle wherein drops of water to be deposited to the surface of preparation compositions such as tablets and the like contact with said surface, which can be used as an indication of hydrophilic nature. For example, such contact angle is measured by forming 1 μL of droplet of pure water (MILLI-Q; MILLIPORE Co.) on the tip of needle (SNSO 52/026; made from stainless steel, inner diameter of 0.26 mm, outer diameter of 0.52 mm; HAMILTON Co.) and evaluating the contact angle at 60 m sec. after the droplet arrives onto the surface of tablet, using a contact angle measuring device (OCA-15 type; Data Physics Co.). When the surface of tablet has curvature, such contact angle is measured by correcting this curvature to straight line at the time when analysis is conducted. Usually, the contact angle is usually measured at room temperature.
As for preparations of which forms are not tablets, contact angles can be measured after molding powders, granules, semisolids and the like contained in such preparation. For example, in the case of capsules, the contact angle thereof can be determined by removing the contents of capsules and molding 200 mg of the contents into a tablet having diameter of 8 mm and thickness of 3.50 mm and having flat and smooth surface.

contact angle of the surface of tablets to water [degree] | Compound
95 | CC(C)[C@H]1CC[C@H](C(=O)N[C@H](Cc2ccccc2)C(=O)O)CC1 [nateglinide B-type crystals, N-(trans-4-isopropylcyclohexanecarbonyl)-D-phenylalanine]
85 | CC(C)[C@H]1CC[C@H](C(=O)N[C@H](Cc2ccccc2)C(=O)O)CC1 [nateglinide H-type crystals, N-(trans-4-isopropylcyclohexanecarbonyl)-D-phenylalanine]
